Laboratory results published in patent publication US8263656B2 (Hoffmann-La Roche Inc., priority 2008, dated 2012).

These molecules were tested against T1, human CRTH2 (Homo sapiens, UniProt Q9Y5Y4) (assay: Human CRTH2 Receptor Binding Assay (whole cell, [3H]ramatroban competition)). Conditions: CHO-K1 cells expressing human CRTH2 and G-alpha16; 20 nM [3H]ramatroban; 1 hour, room temperature.
T1 construct: expressed in transfected cells
T1 sequence (Q9Y5Y4 1-395): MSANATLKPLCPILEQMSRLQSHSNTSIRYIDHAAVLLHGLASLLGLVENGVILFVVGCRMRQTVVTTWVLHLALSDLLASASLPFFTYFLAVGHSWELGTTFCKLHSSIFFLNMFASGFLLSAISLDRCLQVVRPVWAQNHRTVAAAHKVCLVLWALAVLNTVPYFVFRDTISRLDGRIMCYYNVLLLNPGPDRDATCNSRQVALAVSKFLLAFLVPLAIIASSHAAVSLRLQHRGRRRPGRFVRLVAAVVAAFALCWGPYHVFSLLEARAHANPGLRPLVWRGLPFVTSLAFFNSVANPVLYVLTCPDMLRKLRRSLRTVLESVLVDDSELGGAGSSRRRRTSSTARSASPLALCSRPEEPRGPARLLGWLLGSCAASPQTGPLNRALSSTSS
From the text: A whole cell receptor binding assay using [^3H]ramatroban as the competing radioactive ligand was employed to evaluate the compound binding activity to human CRTH2. The radioactive ligand [^3H]ramatroban was synthesized according to Sugimoto et. al. (Eur. J. Pharmacol. 524, 30-37, 2005) to a specific activity of 42 Ci/mmol.
A cell line stably expressing human CRTH2 was established by transfecting CHO-K1 cells with two mammalian expression vectors that harbored human CRTH2 and G-alpha16 cDNAs, respectively, using FuGene® 6 transfection reagent (from Roche). Stable clones expressing CRTH2 were selected by staining each clone with BM16 (BD Pharmingen™ from BD Biosciences, a division of Becton, Dickinson and Company), which is a rat monoclonal antibody to human CRTH2. The cells were maintained as monolayer cultures in Ham's F-12 medium containing 10% fetal bovine serum, 100 units/mL penicillin, […] streptomycin, 2 mM glutamine, 0.5 mg/mL G418 (geneticin) for CRTH2, and 0.2 mg/mL hygromycin-B (for G-alpha 16). For whole cell receptor binding assay, the monolayer cells were rinsed once with PBS (phosphate buffered saline), dissociated using diammonium ethylenediaminetetraacetate (Versene™ EDTA from the Dow Chemical Company), and suspended in PBS containing 10 mM MgCl2 and 0.06% BSA (bovine serum albumin) at 1.5×10^6 cells/mL.
The binding reactions (0.2 mL) were performed in 96-well plates at room temperature in PBS containing 1.5×10^5 cells, 10 mM MgCl2, 0.06% BSA, 20 nM [^3H]ramatroban, and test compound at various concentrations. After 1 hour of binding reactions, the cells were harvested on GF™/B filter microplates (microtiter plates with embedded glass fiber from PerkinElmer, Inc.) and washed 5 times with PBS using a Filtermate™ Harvester (a cell harvester that harvests and washes cells from microplates from PerkinElmer, Inc.). The radioactivities bound to the cells were determined using a microplate scintillation counter (TopCount® NXT, from PerkinElmer, Inc.) after adding 50 μL of Microscint™ 20 scintillation fluid (from PerkinElmer, Inc.) to each well of the filter plates. The radioactivity from non-specific binding was determined by replacing compound with 10 μM of 15(R)-15-methyl PGD2 (from Cayman Chemical Company) in the reaction mixtures. The radioactivity bound to the cells in the absence of compound (total binding) was determined by replacing compound with 0.25% of DMSO (dimethyl sulfoxide) in the reaction mixture. Specific binding data were obtained by subtracting the radioactivity of non-specific binding from each binding data.
The IC50 value is defined as the concentration of the tested compound that is required for 50% inhibition of total specific binding. In order to calculate the IC50 value, the percent inhibition data were determined for 7 concentrations for each compound. The percent inhibition for a compound at each concentration was calculated according to the following formula, [1-(specific binding in the presence of compound)/(total specific binding)]×100. The IC50 value was then obtained by fitting the percent inhibition data to a sigmoidal dose-response (4 parameter logistic) model in the XLfit® software Excel add-in program [from ID Business Solutions Ltd., model 205, where F(x)=(A+(B−A)/(1+((C/x)^D)))].
In the case of CN(C1CCCc2c1cc(Cl)c(F)c2OCC(=O)O)S(=O)(=O)c1cc(Cl)ccc1Cl (stereo not shown) [Example 2-9, {3-Chloro-5-[(2,5-dichloro-benzenesulfonyl)-methyl-amino]-2-fluoro-5,6,7,8-tetrahydro-naphthalen-1-yloxy}-acetic acid], the IC50 is reported as 1160 nM.
CN(C1CCCc2c(OCC(=O)O)cc(Cl)cc21)S(=O)(=O)c1cc(Cl)ccc1Cl (stereo not shown) [Example 2-10, {3-Chloro-5-[(2,5-dichloro-benzenesulfonyl)-methyl-amino]-5,6,7,8-tetrahydro-naphthalen-1-yloxy}-acetic acid] showed an IC50 of 859 nM.
Molecule CN(C1CCCc2c1cc(Cl)c(F)c2OCC(=O)O)S(=O)(=O)c1cc(Br)cc(C(F)(F)F)c1 (stereo not shown) [Example 2-12, {5-[(3-Bromo-5-trifluoromethyl-benzenesulfonyl)-methyl-amino]-3-chloro-2-fluoro-5,6,7,8-tetrahydro-naphthalen-1-yloxy}-acetic acid] has an IC50 of 12.3 nM.
With CN(C1CCCc2c(OCC(=O)O)cc(Cl)cc21)S(=O)(=O)c1cc(Br)cc(C(F)(F)F)c1 (stereo not shown) [Example 2-13, {5-[(3-Bromo-5-trifluoromethyl-benzenesulfonyl)-methyl-amino]-3-chloro-5,6,7,8-tetrahydro-naphthalen-1-yloxy}-acetic acid] the IC50 was 6.2 nM.
CN(C1CCCc2c(OCC(=O)O)cc(Cl)cc21)S(=O)(=O)c1cc(F)cc(C(F)(F)F)c1 (stereo not shown) [Example 2-14, {3-Chloro-5-[(3-fluoro-5-trifluoromethyl-benzenesulfonyl)-methyl-amino]-5,6,7,8-tetrahydro-naphthalen-1-yloxy}-acetic acid] was tested, and the IC50 was 11.2 nM.
CN(C1CCCc2c1cc(Cl)c(F)c2OCC(=O)O)S(=O)(=O)c1cc(F)cc(C(F)(F)F)c1 (stereo not shown) [Example 2-15, {3-Chloro-2-fluoro-5-[(3-fluoro-5-trifluoromethyl-benzenesulfonyl)-methyl-amino]-5,6,7,8-tetrahydro-naphthalen-1-yloxy}-acetic acid] was tested, and the IC50 was 14.1 nM.
With CN(C1CCCc2c1ccc(F)c2OCC(=O)O)S(=O)(=O)c1cc(C(F)(F)F)cc(C(F)(F)F)c1 (stereo not shown) [Example 2-17] the IC50 was 199 nM.
For CN(C1CCCc2c1cc(F)c(F)c2OCC(=O)O)S(=O)(=O)c1ccc(Cl)cc1Cl (stereo not shown) [Example 2-18, {5-[(2,4-Dichloro-benzenesulfonyl)-methyl-amino]-2,3-difluoro-5,6,7,8-tetrahydro-naphthalen-1-yloxy}-acetic acid], the IC50 was 2520 nM.
In the case of CN(C1CCCc2c(OCC(=O)O)cc(F)cc21)S(=O)(=O)c1cc(Cl)ccc1Cl (stereo not shown) [Example 2-19, {55-[(2,5-Dichloro-benzenesulfonyl)-methyl-amino]-3-fluoro-5,6,7,8-tetrahydro-naphthalen-1-yloxy}-acetic acid], the IC50 is reported as 2640 nM.
With CN(C1CCCc2c1cc(F)c(F)c2OCC(=O)O)S(=O)(=O)c1cc(Br)cc(C(F)(F)F)c1 (stereo not shown) [Example 2-20, {5-[(3-Bromo-5-trifluoromethyl-benzenesulfonyl)-methyl-amino]-2,3-difluoro-5,6,7,8-tetrahydro-naphthalen-1-yloxy}-acetic acid] the IC50 was 288 nM.
With CN(C1CCCc2c1cc(F)c(F)c2OCC(=O)O)S(=O)(=O)c1cc(Cl)ccc1Cl (stereo not shown) [Example 2-21, {5-[(2,5-Dichloro-benzenesulfonyl)-methyl-amino]-2,3-difluoro-5,6,7,8-tetrahydro-naphthalen-1-yloxy}-acetic acid] the IC50 was 2100 nM.
For CN(C1CCCc2c(OCC(=O)O)cc(F)cc21)S(=O)(=O)c1cc(Br)cc(C(F)(F)F)c1 (stereo not shown) [Example 2-22, {5-[(3-Bromo-5-trifluoromethyl-benzenesulfonyl)-methyl-amino]-3-fluoro-5,6,7,8-tetrahydro-naphthalen-1-yloxy}-acetic acid], the IC50 was 5.4 nM.
In the case of CN(C1CCCc2c(OCC(=O)O)cc(F)cc21)S(=O)(=O)c1cc(F)cc(C(F)(F)F)c1 (stereo not shown) [Example 2-23, {3-Fluoro-5-[(3-fluoro-5-trifluoromethyl-benzenesulfonyl)-methyl-amino]-5,6,7,8-tetrahydro-naphthalen-1-yloxy}-acetic acid], the IC50 is reported as 198 nM.
